The conditions of data set [1]: presence of EDTA, in proportion to its concentration in solution.
The conditions of data set [2]: Akynzeo prescribing information, cited from earlier work.
Data set [3] can be described thus: p-Netu solubility studies. It counts as physicochemical. The note with it: in water at acidic pH values less than 7.0. The text has this: A study was undertaken to determine the maximum allowable concentration of netupitant in aqueous solutions of p-Netu, above which unacceptable precipitation is observed.

Read-outs that look alike come from different tables or passages of the source.

With `O=C([O-])CN(CCN(CC(=O)[O-])CC(=O)O)CC(=O)O.[Na+].[Na+]` [EDTA, Disodium edetate], the “conversion of p-Netu to 14-Netu” value in data set [1] is listed as “reduced”. In the case of `Cc1ccccc1-c1cc(N2CCN(C)CC2)ncc1N(C)C(=O)C(C)(C)c1cc(C(F)(F)F)cc(C(F)(F)F)c1` [netupitant, 2-(3,5-bis(trifluoromethyl)phenyl)-N,2-dimethyl-N-(6-(4-methylpiperazin-1-yl)-4-(o-tolyl)pyridine-3-yl)propanamide], the systemic exposure entry was “greater than dose-proportional increase” in data set [2] (dose increase from 10 mg to 300 mg) and “dose-proportional increase” in data set [2] (dose increase from 300 mg to 450 mg). Regarding `Cc1ccccc1-c1cc(N2CC[N+](C)(COP(=O)([O-])O)CC2)ncc1N(C)C(=O)C(C)(C)c1cc(C(F)(F)F)cc(C(F)(F)F)c1` [p-Netu, 4-(5-(2-(3,5-bis(trifluoromethyl)phenyl)-N,2-dimethylpropanamido)-4-(o-tolyl)pyridin-2-yl)-1-methyl-1-((phosphonooxy)methyl) piperazin-1-ium], in data set [3], the p-Netu solubility entry is listed as “drops significantly”.

The values are drawn from US11529362B2, “Physiologically balanced injectable formulations of fosnetupitant” (HELSINN HEALTHCARE SA, priority 2016, dated 2022).
